Assay results published in PMC12498288 (Frontiers in Immunology, 2025).

Assays:
[1] = test system: cytokine and chemokine levels; assay: RESPIRE Phase 2 trial, cytokines/chemokines in hospitalized COVID-19 patients (MesoScale V-Plex); assay type: in vivo, human; details: vs placebo
Description: For standard of care treatment see Supplementary Table 5 .

[2] = test system: cytokine and chemokine levels; assay: Cytokine and chemokine levels in SARS-CoV-2-infected Syrian hamsters (serum ELISA, lung RT-qPCR); assay type: in vivo; details: 4 dpi, between groups after infection and treatment
Method: Eleven- to thirteen-week-old male Syrian hamsters (Janvier, France) with a body weight of 113-148 g were infected on day 0 intranasally with SARS-CoV-2 (1x10^3 median tissue culture infectious dose (TCID50) BetaCoV/Munich/BavPat1/2020) in a total volume of 0.1 mL PBS divided between the nostrils. Zapnometinib (100 mg/kg) was administered p.o. at 4 or 24 h p.i. and the animals in both groups were treated thereafter with 75 mg/kg zapnometinib once daily. The animals in the control group received vehicle (5% DMSO, 15% Kolliphor, 80% PBS) 4 h p.i. and thereafter once daily. Serum samples were collected from hamsters before infection (0 dpi) and at 4 dpi, and the levels of different cytokines and chemokines (IL1-β, TNF-α, IL-6, and IP-10) were analyzed by ELISA (Assay Genie, Ireland). […] Tetramethylbenzidine (TMB) substrate was added and the color change in the wells was used as readout for the ELISA. The optical density (OD) at 450 nm was read. Cytokine and chemokine concentrations were calculated following the manufacturer’s instructions for interpolating unknown concentrations from a standard curve.
Supplementary Figure 3. […] A. Cytokine levels in serum samples collected at 0 dpi (before infection and treatment, bottom row) and 4 dpi (top row) from vehicle-treated and zapnometinib-treated Syrian hamsters from the efficacy study analyzed by ELISA are shown. […]

[3] = test system: human PBMCs; assay: Cytokine and chemokine levels in LPS-stimulated human PBMCs (ELISA); assay type: cell-based; details: 1 µg/mL LPS, 10 µg/mL zapnometinib, 6 h, vs untreated control
Method: Human peripheral blood mononuclear cells (PBMCs) were isolated from healthy volunteers registered with the Biobank of the Department of Immunology at the University of Tuebingen, after informed consent documented in writing. Ethical approval was obtained upon review by the Ethics Board of the Medical Faculty of the Eberhard Karls University Tuebingen and the University Hospital Tuebingen (887/2020BO2). Briefly, 50 ml whole blood (roughly 5x10^7 PBMCs) of two donors were taken in 50 ml syringes (BD Biosciences, Franklin Lakes, New Jersey, USA) supplied with heparin-natrium (100.000 I.E./ml; Braun, Melsungen, Germany). The whole blood was mixed with PBS (Gibco, Carlsbad, California, USA) in a 1:1 ratio in 50 ml tubes (Greiner Bio-One, Frickenhausen, Germany), and PBMCs were subsequently isolated from the whole blood by density gradient centrifugation using Histopaque®-1077 (Sigma-Aldrich, St. Louis, Missouri, USA) as density gradient medium. Five millilitres of plasma per donor were preserved for cell culture medium preparation. The PBMCs were then purified by washing them twice with PBS.
2x10^6 human PBMCs from two donors each were suspended in 1 mL RPMI 1640 medium (Gibco) containing 5% autologous plasma, 1% penicillin/streptomycin (Sigma-Aldrich), and 1% L-glutamine (Sigma-Aldrich) and were treated with 1 μg/mL LPS from E. coli O55:B5 (prepared in PBS) and 10 μg/mL zapnometinib (prepared in DMSO and diluted in cell culture medium to a final concentration of 0.1% DMSO) for 6 h at 37°C and 5% CO2. The supernatants (cell culture medium) were collected and stored at -20°C until analysis by ELISA. Ready-to-use ELISA kits (Invitrogen, Waltham, Massachusetts, USA) were used according to the manufacturer’s instructions to determine the levels of the following cytokines: IL-1β, IL-6, IL-8, IP-10, MCP-1, MIP-1α, and TNF-α. Briefly, the samples and standards were applied to ELISA plates pre-coated with specific antibodies targeting the cytokines of interest. Biotinylated detection antibodies binding to the cytokines of interest were added to the wells followed by a horseradish peroxidase (HRP)-streptavidin conjugate, which binds to the biotinylated detection antibodies. Unbound cytokines, detection antibodies, and HRP-streptavidin conjugate were removed by washing. Tetramethylbenzidine (TMB) substrate was added, and the color change in the wells served as the readout for the ELISA. Optical density (OD) at 450 nm was measured using a SpectraMAX Plus 384 microplate reader. For IL-1β, IL-8, MCP-1, and TNF-α the OD was also read at a reference wavelength of 620 nm, and for IL-6 at a reference wavelength of 550 nm. For IP-10 and MIP-1α no reference wavelength was used. Cytokine and chemokine concentrations were calculated following the manufacturer’s instructions for interpolating unknown concentrations from a standard curve.

`O=C(O)c1ccc(F)c(F)c1Nc1ccc(I)cc1Cl` [zapnometinib] was tested, and the IL-8/CXCL-8 levels ([1]; up to day 30) was “slight but not statistically significant increase”, the TNF-α levels ([1]; up to day 30) was “no changes” and the MCP-1 levels ([1]; up to day 30, 900 mg D1 then 600 mg daily D2-6, p = <0.0001) was “significant reduction”. For the same molecule, the IL-6 levels ([1]; up to day 30, p = 0.0017) was “significantly reduced”, the IFNγ levels ([1]; up to day 30, p = <0.0001) was “significant reduction” and the MIP-1α levels ([1]; up to day 30, p = <0.0001) was “significant reduction”. For the same molecule, the “cytokine and chemokine levels in serum (ELISA) and lung tissue (RT-qPCR)” value [2] was “no major differences”, the IL-1β expression level [3] was “significantly reduced” and the IL-6 expression level [3] was “significantly reduced”. The IL-8 expression level [3] was “significantly reduced”, the IP-10 expression level [3] was “significantly reduced” and the MCP-1 expression level [3] was “significantly reduced”. For the same molecule, the MIP-1α expression level [3] was “significantly reduced” and the TNF-α expression level [3] was “significantly reduced”.
